Data on nine compounds can be found in patent US12312359B2 (Vitae Pharmaceuticals, LLC, priority 2016, dated 2025).

In assay [1] the test system is human acute monocytic leukemia cell line MV-4-11. The assay is described as follows: Assay 2: cell proliferation assay (ATP quantitation, CellTiter-Glo), MV-4-11. It is filed as cell-based. The settings on record: MV-4-11 cells. The method, boiled down:
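MV-4-11 cells, 1.67×10^4 per well in medium with 10% FBS, were exposed to compound for 72 h at 37° C., 5% CO2; HL-60 cells served as toxicity control. Proliferation read as ATP content by CellTiter-Glo luminescence.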
Background: In ATP-based viability assays light output follows the ATP content of the culture.

Assay [2] has as its target T1, biotinylated wild-type menin and MLL-AF9 fusion protein (menin/MLL binding) (Homo sapiens, UniProt O00255).
T1 construct: made in house; host or cells: menin: E. coli; MLL-AF9-FLAG: HEK293 cells, used as cleared lysate
T1 sequence (O00255 1-610): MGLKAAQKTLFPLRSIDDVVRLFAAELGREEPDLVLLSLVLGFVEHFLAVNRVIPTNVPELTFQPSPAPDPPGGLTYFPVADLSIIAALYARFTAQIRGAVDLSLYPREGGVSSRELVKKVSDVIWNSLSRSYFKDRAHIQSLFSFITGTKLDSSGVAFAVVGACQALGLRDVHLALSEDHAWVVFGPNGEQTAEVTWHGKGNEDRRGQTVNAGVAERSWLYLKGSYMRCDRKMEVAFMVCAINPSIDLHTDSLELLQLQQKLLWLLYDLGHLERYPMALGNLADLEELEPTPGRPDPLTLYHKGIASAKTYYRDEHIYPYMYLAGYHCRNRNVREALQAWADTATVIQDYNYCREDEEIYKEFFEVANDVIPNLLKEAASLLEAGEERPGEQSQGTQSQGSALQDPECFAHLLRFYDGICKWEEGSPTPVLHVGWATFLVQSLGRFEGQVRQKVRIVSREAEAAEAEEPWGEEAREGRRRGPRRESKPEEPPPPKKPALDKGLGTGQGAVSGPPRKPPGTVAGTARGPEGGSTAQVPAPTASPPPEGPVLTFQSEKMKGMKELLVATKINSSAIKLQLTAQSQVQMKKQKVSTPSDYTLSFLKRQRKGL
The assay is described as follows: Assay 1: menin/MLL binding AlphaLISA assay, wild-type menin. The settings on record: Table 30; column head does not say wild-type or mutated menin. The method, boiled down: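 Compound was preincubated 30 min at room temperature with biotinylated menin (5 nM) and MLL-AF9-FLAG lysate from HEK293 cells, pH 7.4 buffer with 5% DMSO and DTT. Bead-based Alpha signal after 60 min with streptavidin donor and anti-FLAG acceptor beads; four-parameter logistic fit gave IC50.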

What is called EC50 is the concentration that produces a half-maximal response. Read a low EC50 as an effect from little substance. The IC50 is the concentration at which inhibition is half-maximal. A higher IC50 goes with weaker potency. For the compound `CCN(C(=O)C(C)C)c1cc(F)ccc1Oc1cncnc1N1CC2(CCN(C[C@H]3CC[C@H](NC(=O)OC)CC3)CC2)C1` [Example 85, methyl ((1r,4r)-4-((2-(5-(2-(N-ethylisobutyramido)-4-fluorophenoxy)pyrimidin-4-yl)-2,7-diazaspiro[3.5]nonan-7-yl)methyl)cyclohexyl) carbamate], in assay [1] (Homo sapiens, MV4-11, 72 h), the EC50 fell in the range of 100 to 1000 nM. Moreover, the IC50 in assay [2] is less than 100 nM.

Compound `Cn1c(-c2cc(F)ccc2Oc2cncnc2N2CC3(CCN(C[C@H]4CC[C@H](NC(=O)C(F)(F)F)CC4)CC3)C2)c(C2CC2)ccc1=O` [Example 79, N-((1r,4r)-4-((2-(5-(2-(3-cyclopropyl-1-methyl-6-oxo-1,6-dihydropyridin-2-yl)-4-fluorophenoxy)pyrimidin-4-yl)-2,7-diazaspiro[3.5]nonan-7-yl)methyl)cyclohexyl)-2,2,2-trifluoroacetamide] displayed an EC50 in assay [1] (Homo sapiens, MV4-11, 72 h) of less than 100 nM. This compound displayed an IC50 in assay [2] of less than 100 nM.

As to `CC(C)N(C(=O)c1cc(F)ccc1Nc1cncnc1N1CCC2(CC1)CN(C1CCC(NS(C)(=O)=O)CC1)C2)C(C)C` (single isomer, unassigned) [Example 248B, 5-fluoro-N,N-diisopropyl-2-((4-(2-(4-(methylsulfonamido)cyclohexyl)-2,7-diazaspiro[3.5]nonan-7-yl)pyrimidin-5-yl)amino) benzamide], the EC50 in assay [1] (72 h) was in the range of 100 to 1000 nM. Besides, in assay [2], the IC50 is less than 100 nM.

Consider `CC(C)N(C(=O)c1cc(F)ccc1Oc1cncnc1N1CCC2(CC(O)C(Cc3ccc4[nH]c(=O)[nH]c4c3)C2)C1)C(C)C` (single isomer, unassigned) [Example 23C, 5-fluoro-2-((4-(7-hydroxy-8-((2-oxo-2,3-dihydro-1H-benzo[d]imidazol-5-yl)methyl)-2-azaspiro[4.4]nonan-2-yl)pyrimidin-5-yl)oxy)-N,N-diisopropylbenzamide], for which the EC50 in assay [1] (72 h) was not below 1000 nM. In assay [2], the IC50 is less than 100 nM.

For the compound `CC(C)c1ncncc1-c1cc(F)ccc1Oc1cncnc1N1CCC2(CCN(Cc3ccc4[nH]c(=O)[nH]c4c3)C2)C1` (stereo not drawn) [Example 160, 5-((7-(5-(4-fluoro-2-(4-isopropylpyrimidin-5-yl)phenoxy)pyrimidin-4-yl)-2,7-diazaspiro[4.4]nonan-2-yl)methyl)-1,3-dihydro-2H-benzo[d]imidazol-2-one], the EC50 in assay [1] (Homo sapiens, MV4-11, 72 h) is less than 100 nM. Also, in assay [2], the IC50 is less than 100 nM.

Regarding `N#Cc1ccc(-c2cc(F)ccc2Oc2cncnc2N2CCC3(CCN(Cc4ccc(N5CCCC5=O)cc4)C3)C2)c(C2CC2)c1` (stereo not drawn) [Example 195, 2-cyclopropyl-5′-fluoro-2′-((4-(7-(4-(2-oxopyrrolidin-1-yl)benzyl)-2,7-diazaspiro [4.4]nonan-2-yl)pyrimidin-5-yl)oxy)-[1,1′-biphenyl]-4-carbonitrile], the EC50 in assay [1] (Homo sapiens, MV4-11, 72 h) lay within 100 to 1000 nM. The compound further displayed an IC50 in assay [2] of less than 100 nM.

`CCN(C(=O)c1cc(F)ccc1Oc1cncnc1N1CCC2(CCN(Cc3ccc4[nH]c(=O)[nH]c4c3)C2)C1)C(C)C` (single isomer, unassigned) [Example 2A, N-ethyl-5-fluoro-N-isopropyl-2-((4-(7-((2-oxo-2,3-dihydro-1H-benzo[d]imidazol-5-yl)methyl)-2,7-diazaspiro[4.4]nonan-2-yl)pyrimidin-5-yl)oxy)benzamide] came in with an EC50 in assay [1] (72 h) of less than 100 nM. Besides, in assay [2], the IC50 is less than 100 nM.

In assay [1] (Homo sapiens, MV4-11, 72 h), `CC(C)c1ncncc1-c1cc(F)ccc1Oc1cncnc1N1CC2(CC(NC(C)c3ccc(C#N)cc3)C2)C1` (stereo not drawn) [Example 141, 4-(1-((2-(5-(4-fluoro-2-(4-isopropylpyrimidin-5-yl)phenoxy)pyrimidin-4-yl)-2-azaspiro[3.3]heptan-6-yl)amino)ethyl)benzo-nitrile] had an EC50 of 100 to 1000 nM. The compound further came in with an IC50 in assay [2] of less than 100 nM.

In assay [1] (Homo sapiens, MV4-11, 72 h), `CNC(=O)C1CC1c1cc(F)ccc1Oc1cncnc1N1CCC2(CCN(Cc3ccc4[nH]c(=O)[nH]c4c3)C2)C1` (stereo not drawn) [Example 38, 2-(5-fluoro-2-((4-(7-((2-oxo-2,3-dihydro-1H-benzo[d]imidazol-5-yl)methyl)-2,7-diazaspiro[4.4]nonan-2-yl)pyrimidin-5-yl)oxy)phenyl)-N-methylcyclopropane carboxamide] had an EC50 not below 1000 nM. The IC50 in assay [2] is less than 100 nM.
